Several values for one entry are separate records, joined by “and”; a condition that tells them apart may be missing. Equal entries are not always repeated.
Legend:
RETV804L = biological target: T1, RETV804L (Homo sapiens, UniProt P07949, V804L); experiment: Biochemical kinase selectivity assay, RET V804L
T1 sequence (P07949 658-1114 V804L limits assumed): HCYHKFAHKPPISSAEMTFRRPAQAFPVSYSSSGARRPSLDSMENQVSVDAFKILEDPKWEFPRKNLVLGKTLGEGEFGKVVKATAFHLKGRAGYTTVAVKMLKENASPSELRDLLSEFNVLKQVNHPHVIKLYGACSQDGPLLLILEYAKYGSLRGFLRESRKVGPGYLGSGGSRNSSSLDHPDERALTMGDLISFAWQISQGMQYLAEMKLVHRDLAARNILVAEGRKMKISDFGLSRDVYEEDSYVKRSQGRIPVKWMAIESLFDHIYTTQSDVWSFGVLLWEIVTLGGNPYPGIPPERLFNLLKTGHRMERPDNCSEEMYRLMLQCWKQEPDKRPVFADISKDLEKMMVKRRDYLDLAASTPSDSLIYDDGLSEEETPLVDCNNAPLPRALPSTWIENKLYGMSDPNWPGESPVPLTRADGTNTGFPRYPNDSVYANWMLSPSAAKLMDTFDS

FLT3D835Y = biological target: T2, FLT3D835Y (Homo sapiens, UniProt P36888, D835Y); experiment: Biochemical kinase selectivity assay, FLT3 D835Y; settings: in vitro kinase assay; read-out: FLT3D835Y IC50 (nM) ± SD
T2 construct: the biochemical assay only contains the kinase domain with a single, D835Y point mutation
T2 sequence (P36888 610-943 D835Y limits assumed): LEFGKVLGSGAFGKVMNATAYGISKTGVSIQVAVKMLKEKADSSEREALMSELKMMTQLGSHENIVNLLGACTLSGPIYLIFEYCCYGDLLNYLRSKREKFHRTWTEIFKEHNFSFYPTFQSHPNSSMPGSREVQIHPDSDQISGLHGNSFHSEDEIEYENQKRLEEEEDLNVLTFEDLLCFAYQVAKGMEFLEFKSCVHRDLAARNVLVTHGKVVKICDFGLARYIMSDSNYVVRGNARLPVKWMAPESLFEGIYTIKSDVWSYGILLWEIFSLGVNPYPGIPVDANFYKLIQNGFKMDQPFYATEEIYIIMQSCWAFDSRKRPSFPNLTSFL
Protocol: Kinase activity was measured in a microfluidics assay that monitors the separation of a phosphorylated product from substrate[31],[32]. The assay was run using a 12-sipper chip on a Caliper EZ Reader II (PerkinElmer®, Walthman, USA) with separation buffer (100 mM HEPES, 10 mM EDTA, 0.015% Brij-35, 0.1% CR-3 [PerkinElmer®, Walthman, USA]). In 96-well polypropylene plates (Greiner, Frickenhausen, Germany) compound stocks (20 mM in DMSO) were diluted into kinase buffer (50 mM HEPES, 0.075% Brij-35, 0.1% Tween 20, 2 mM DTT, 10 mM MgCl2, and 0.02% NaN3) in 12-point ½log dilutions (2 mM–6.32 nM). After, 1 μL was transferred into a 384-well polypropylene assay plate (Greiner, Frickenhausen, Germany). […] Percent inhibition was measured for each well comparing starting peptide to phosphorylated product peaks relative to the baseline. […] IC50 values were generated in duplicate and error was calculated from the standard deviation between values.
S10. Biochemical Inhibition Assay:1,2 Kinase activity was measured in a microfluidics assay that monitors the separation of a phosphorylated product from substrate. The assay was run using a 12-sipper chip on a Caliper EZ Reader II (PerkinElmer®, Walthman, USA) with separation buffer (100 mM HEPES, 10 mM EDTA, 0.015% Brij-35, 0.1% CR-3 [PerkinElmer®, Walthman, USA]). […]

Row | inhibition at 20 µM (RETV804L) | IC50 (FLT3D835Y) | SMILES
1 | 62.3% | 72.5 nM and 72 nM | Cn1nc(C(C)(C)C)cc1NC(=O)Cc1ccc(Nc2cc(Nc3ccc(S(C)(=O)=O)cc3)ncn2)cc1 [13a, 2-(4-(6-(4-(Methylsulfonyl)phenylamino)pyrimidin-4-ylamino)phenyl)-N-(3-tert-butyl-1-methyl-1H-pyrazol-5-yl)acetamide]
2 | 40.8% | 13700 ± 234 nM | CC(C)(C)c1cc(NC(=O)Cc2ccc(Nc3cc(Nc4ccc(S(C)(=O)=O)cc4)ncn3)cc2)no1 [13k, 2-(4-(6-(4-(Methylsulfonyl)phenylamino)pyrimidin-4-ylamino)phenyl)-N-(5-tert-butylisoxazol-3-yl)acetamide]
